According to article PMC11878344 (Angewandte Chemie (International Ed. in English), 2025):
Where two headings read alike, the source gives them in different places.

Experiments:
[1] = molecular target: T1, mouse MAGL (Mus musculus, UniProt O35678); assay: In vitro MAGL inhibition assay (2-AG hydrolysis followed by mass spectrometry); format: biochemical
T1 sequence (O35678 1-303): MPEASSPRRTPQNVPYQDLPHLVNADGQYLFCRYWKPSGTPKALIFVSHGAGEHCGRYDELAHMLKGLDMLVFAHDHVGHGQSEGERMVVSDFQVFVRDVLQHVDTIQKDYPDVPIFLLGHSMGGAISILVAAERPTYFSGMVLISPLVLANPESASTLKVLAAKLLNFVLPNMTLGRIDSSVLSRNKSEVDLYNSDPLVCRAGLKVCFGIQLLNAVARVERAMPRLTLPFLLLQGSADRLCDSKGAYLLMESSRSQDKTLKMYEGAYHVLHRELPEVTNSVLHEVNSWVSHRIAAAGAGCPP
Method: (§1) 4. Experimental Details of Biochemical Assays and Crystal Structure
(§2) In Vitro MAGL Inhibition Assay
(§3) Compounds were profiled for MAGL inhibitory activity by determining the enzymatic activity by following the hydrolysis of the natural substrate 2-arachidonoylglycerol (2-AG), resulting in arachidonic acid, which can be followed by mass spectrometry. The 2-AG assay was carried out in 384 well assay plates (PP, Greiner Cat# 784201) in a total volume of 20 µL. Compound dilutions were made in 100% DMSO (VWR Chemicals 23500.297) in a polypropylene plate in 3-fold dilution steps to give a final concentration range in the assay from 12.5 µM to 0.8 pM. 0.25µL compound dilutions (100% DMSO) were added to 9 µL MAGL in assay buffer (50 mM TRIS (GIBCO, 15567-027), 1 mM EDTA (Fluka, 03690-100 mL), 0.01% (v/v) Tween. After shaking, the plate was incubated for 15 min at RT. To start the reaction, 10 µL 2-arachidonoylglycerol in assay buffer was added. The final concentrations in the assay were 50 pM MAGL and 8 µM 2-arachidonoylglyerol. After shaking and 30 min incubation at RT, the reaction was quenched by the addition of 40µL of ACN containing 4 µM of d8-arachidonic acid. The amount of arachidonic acid was traced by an online SPE system (Agilent Rapidfire) coupled to a triple quadrupole mass spectrometer (Agilent 6460). A C18 SPE cartridge (G9205A) was used in an ACN/water liquid setup. The mass spectrometer was operated in negative electrospray mode following the mass transitions 303.1 → 259.1 for arachidonic acid and 311.1 → 267.0 for d8-arachidonic acid. The activity of the compounds was calculated based on the ratio of intensities [arachidonic acid / d8- […]
(§4) This assay was performed as first described before.[39] […]

[2] = molecular target: T2, human MAGL (Homo sapiens, UniProt Q99685); assay: as above; format: biochemical
T2 sequence (Q99685 1-303): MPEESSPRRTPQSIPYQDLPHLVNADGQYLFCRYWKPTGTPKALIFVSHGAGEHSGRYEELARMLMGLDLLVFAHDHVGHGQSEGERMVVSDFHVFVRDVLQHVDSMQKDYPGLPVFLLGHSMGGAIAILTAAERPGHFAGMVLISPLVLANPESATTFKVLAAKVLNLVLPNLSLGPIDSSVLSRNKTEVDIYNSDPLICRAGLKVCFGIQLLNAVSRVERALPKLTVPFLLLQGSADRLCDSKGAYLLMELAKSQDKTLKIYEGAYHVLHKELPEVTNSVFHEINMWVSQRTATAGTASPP
Method: as §1, §2, §3, §4

[3] = tested on: MAGL; set-up: method as in PMID 35089028, PMID 34764251, PMID 34328319, PMID 29498843; details: known MAGL ligands of Figure 1; cited from earlier work
[4] = molecular target: T3, NanoLuc luciferase MAGL fusion protein in HEK293A cells (Homo sapiens, UniProt Q99685); assay: Cellular MAGL NanoBRET target engagement assay; format: cell-based
T3 construct: expressed in transfected cells
T3 sequence (Q99685 1-303): T2 sequence (Q99685 1-303)
Method: We, therefore, confirmed cellular MAGL target engagement in a nanoBRET assay using live HEK293 cells.[39] […] To overcome the low cellular potency of 4, we exploited the modular construction principle to modulate unfavorable physicochemical properties and investigated less polar, privileged head groups[23, 33, 40] (Supporting Information Table S4). […]
This assay was performed as first described before.[39]
Compounds were profiled by a novel cellular MAGL NanoBRET™ Target Engagement assay, which measures the apparent affinity of test compounds by competitive displacement of a Roche-developed Tracer (WO2021058443, Example 21)[21], reversibly bound to a NanoLuc® luciferase MAGL fusion protein in cells.
A HEK293A stable cell line expressing NanoLuc_MAGL was established at Roche and assigned as HEK293A_NanoLuc_MAGL clone #43. A fixed concentration of tracer is added to cells expressing the NanoLuc®_MAGL fusion protein to generate a BRET reporter complex. The introduction of competing compounds results in a dose-dependent decrease in NanoBRET™ energy transfer, which allows quantification of the intracellular affinity of the target protein for the […]
HEK293A_NanoLuc_MAGL clone #43 cells were cultured in DMEM (Gibco 31966) with 10% FBS and 800 ug/ml G418. The NanoBRET assay was performed by seeding 5000 cells/well in Costar low-volume white 384-well plate in assay buffer (1% FBS in HBSS), followed by adding 50 nM final concentration of tracer and serial dilutions of test compounds. After 2 hours of incubation, Nanoluciferase substrates and extracellular inhibitors were added following the manufacturer's protocol (Promega, #N2520), and the NanoBRET signaling were quantified with the Paradigm

[5] = Fluorescence excitation/absorption and emission maxima; format: physicochemical; details: PBS pH 7.4
Source text: Figure S8. Fluorescence excitation and emission spectra of the utilized fluorescent reporters in PBS pH 7.4. Spectra l differences between probes carrying the same fluorophore were […]
Table S6. Fluorescence excitation, emission maxima, and Stokes-shift in PBS pH 7.4 for the used fluorophores, respectively. difference s between probes with the same fluorophore were […]
λmax Excitation [nm] λmax Emission [nm] Stokes-shift [nm]
(1 picture or pasted object on this page, not shown here)

[6] = molecular target: Cyno MAGL (Macaca fascicularis, UniProt A0A2K5V664); assay: In vitro MAGL inhibition assay; format: biochemical, cynomolgus monkey; details: Supporting Information Table S4
Method: as §1, §2
Compounds were profiled for MAGL inhibitory activity by determining the enzymatic activity by following the hydrolysis of the natural substrate 2-arachidonoylglycerol (2-AG), resulting in arachidonic acid, which can be followed by mass spectrometry. The 2-AG assay was carried out in 384 well assay plates (PP, Greiner Cat# 784201) in a total volume of 20 µL. Compound dilutions were made in 100% DMSO (VWR Chemicals 23500.297) in a polypropylene plate in 3-fold dilution steps to give a final concentration range in the assay from 12.5 µM to 0.8 pM. […] The activity of the compounds was calculated based on the ratio of intensities [arachidonic acid / d8- […]

[7] = Supporting Information Tables S1-S5, read-out: IC50 mMAGL
[8] = Supporting Information Tables S1-S5, read-out: IC50 hMAGL
[9] = Table 1, n=1 to 3, read-out: mMAGL IC50
[10] = Table 1, n=1 to 3, read-out: hMAGL IC50
[11] = Table 1, transfected HEK293 cells, n=1 to 3, read-out: HEK293 nanoBRET IC50
[12] = Table 2, mean of three independent measurements ± SD, read-out: mMAGL IC50±SD
[13] = Table 2, mean of three independent measurements ± SD, read-out: hMAGL IC50±SD
[14] = Table 2, mean of three independent measurements ± SD, read-out: HEK 293 nanoBRET IC50±SD

Cyno MAGL, sequence (A0A2K5V664 entry or part of it): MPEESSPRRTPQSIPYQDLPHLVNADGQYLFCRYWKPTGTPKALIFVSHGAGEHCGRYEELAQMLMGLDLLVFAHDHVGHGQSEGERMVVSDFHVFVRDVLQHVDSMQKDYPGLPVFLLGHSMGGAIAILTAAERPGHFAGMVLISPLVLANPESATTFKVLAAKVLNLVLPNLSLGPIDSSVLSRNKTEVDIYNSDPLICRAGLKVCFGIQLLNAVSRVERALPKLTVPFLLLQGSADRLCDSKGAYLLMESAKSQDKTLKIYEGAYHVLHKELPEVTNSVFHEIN

SMILES | IC50 [1, 7] | IC50 [2, 8] | IC50 [1, 9] | IC50 [2, 10] | IC50 [4, 11] | further results
O=C1CO[C@H]2CCN(C(=O)N3CCC4(CC3)CC(OCc3ccccc3OCCNC(=O)OCc3ccccc3)C4)C[C@H]2N1 [Compound S5] | 21 nM | 7 nM | – | – | – | –
Cc1ccc(C(c2ccccc2)C2CCN(C(=O)N3CCC4OCC(=O)NC4C3)CC2)cc1 (stereo not drawn) [Compound 85] | – | – | – | – | – | IC50 [3]: 0.1 nM
O=C(NCCOc1ccccc1COCC1CN(C(=O)OC(C(F)(F)F)C(F)(F)F)C1)OCc1ccccc1 [Compound 7] | – | – | 0.85 nM | 0.65 nM | 222 nM | –
O=C1CO[C@H]2CCN(C(=O)N3CC(COCc4cccc(OCCNC(=O)OCc5ccccc5)c4)C3)C[C@H]2N1 [Compound 2] | 97 nM | 31 nM | 97.4 nM | 30.8 nM | 406 nM | –
O=C1CO[C@H]2CCN(C(=O)N3CC(OCc4ccccc4OCCNC(=O)OCc4ccccc4)C3)C[C@H]2N1 [Compound S1] | – | 70 nM | – | – | – | –
O=C1NC2(CO1)CN(C(=O)N1CC3(CC(Cc4ccccc4OCCNc4ccc([N+](=O)[O-])c5c4NON5)C3)C1)C2 [Compound 8] | 0.138 nM | 0.124 nM | 0.11 nM | 0.09 nM | 307 nM | λmax Em (fluorescence emission maximum) [5]: 554 nm; λmax Ex (fluorescence excitation maximum) [5]: 479 nm; IC50 [1, 12]: 0.12 ± 0.04 nM; IC50 [2, 13]: 0.09 ± 0.03 nM; IC50 [4, 14]: 308 ± 114 nM
O=C1CO[C@H]2CCN(C(=O)N3CC4(CC(OCc5cccc(OCCNC(=O)OCc6ccccc6)c5)C4)C3)C[C@H]2N1 [Compound S11] | 76 nM | 28 nM | – | – | – | –
O=C1CO[C@H]2CCN(C(=O)N3CC(COCc4ccccc4)C3)C[C@H]2N1 [Compound 1] | – | – | 526 nM | 379 nM | > 10000 nM | –
O=C1CO[C@H]2CCN(C(=O)N3CC4(CCC(OCc5ccccc5OCCNC(=O)OCc5ccccc5)CC4)C3)C[C@H]2N1 [Compound S4] | 38 nM | 15 nM | – | – | – | –
O=C1NC2(CO1)CN(C(=O)N1CC(COCc3ccccc3OCCNc3ccc([N+](=O)[O-])c4nonc34)C1)C2 [Compound 6] | – | – | 1.03 nM | 0.72 nM | 318 nM | –
O=C(NCCOc1ccccc1COCC1CN(C(=O)N2CC3(COC(=O)N3)C2)C1)OCc1ccccc1 [Compound 5] | – | – | 0.59 nM | 0.29 nM | 61 nM | IC50 [6]: 0.094 nM
CN1/C(=C\C=C\C2=[N+](CCCCCC(=O)NCCOc3ccccc3CC3CC4(C3)CN(C(=O)N3CC5(COC(=O)N5)C3)C4)c3ccccc3C2(C)C)C(C)(C)c2ccccc21 [Compound S21] | 0.119 nM | 0.122 nM | – | – | – | –
O=C1CO[C@H]2CCN(C(=O)N3CC(COCc4ccccc4OCCCCCNC(=O)OCc4ccccc4)C3)C[C@H]2N1 [Compound S8] | 144 nM | 46 nM | – | – | – | –
O=C(NCCOc1ccccc1COCC1CN(C(=O)CC[C@@H]2COC(=O)N2)C1)OCc1ccccc1 [Compound S19] | 66 nM | 9.2 nM | – | – | – | –
O=C1CO[C@H]2CCN(C(=O)N3CC4(CC(OCc5ccccc5OCCNC(=O)OCc5ccccc5)C4)C3)C[C@H]2N1 [Compound S3] | 38 nM | 11 nM | – | – | – | –
O=C1COc2ccc(C(=O)N3CC(COCc4ccccc4OCCNC(=O)OCc4ccccc4)C3)cc2N1 [Compound S18] | 35 nM | 7.5 nM | – | – | – | –
C#CCCCC(=O)NCCOc1ccccc1CC1CC2(C1)CN(C(=O)OC(C(F)(F)F)C(F)(F)F)C2 [Compound 13] | – | – | – | – | – | IC50 [1, 12]: 0.13 ± 0.05 nM; IC50 [2, 13]: 0.14 ± 0.04 nM; IC50 [4, 14]: 99 ± 23 nM
O=C1CO[C@H]2CCN(C(=O)N3CC(OCc4cccc(OCCNC(=O)OCc5ccccc5)c4)C3)C[C@H]2N1 [Compound S9] | 38 nM | 44 nM | – | – | – | –
O=C1CO[C@H]2CCN(C(=O)N3CC(COCc4ccccc4OCCCNC(=O)OCc4ccccc4)C3)C[C@H]2N1 [Compound S7] | 7 nM | 3 nM | – | – | – | –
O=C(NCCCCCOc1ccccc1CC1CC2(C1)CN(C(=O)O[C@H](CO)C(F)(F)F)C2)O[C@H]1CC/C=C/CCC1 [Compound 14] | – | – | – | – | – | IC50 [1, 12]: 0.42 ± 0.17 nM; IC50 [2, 13]: 0.31 ± 0.13 nM; IC50 [4, 14]: 1250 ± 507 nM
O=C1CO[C@H]2CCN(C(=O)N3CC(COCc4ccccc4OCCNC(=O)OCc4ccccc4)C3)C[C@H]2N1 [Compound 3] | 5 nM | 2 nM | 5.41 nM | 2.14 nM | 141 nM | –
O=C1CO[C@H]2CCN(C(=O)N3C[C@@H]4C(COCc5ccccc5OCCNC(=O)OCc5ccccc5)[C@@H]4C3)C[C@H]2N1 (stereo partly drawn) [Compound S6] | 315 nM | 97 nM | – | – | – | –
